Test results taken from patent US20200108032A1, “USE OF ISOFERULIC ACID, ISOFERULIC ACID-CONTAINING TRADITIONAL CHINESE MEDICINE EXTRACT AND CIMICIFUGAE RHIZOMA” (BEIJING DITAN HOSPITAL, CAPITAL MEDICAL UNIVERSITY, priority 2017, published 2020).

Experiments:
Type in all cases: in vivo, C57BL/6 mice
[1] = test system: mouse model of ConA hepatitis; assay: Liver pathological damage (HE staining) in mouse model of ConA hepatitis; details: liver 10 hours after ConA 15 mg/kg; compared with the ConA group
Procedure: The test materials and animals were the same as those in Experimental Example 1.
Grouping: C57BL/6 mice, male, 18-20 g, after 1 day of adaptive breeding, the mice were randomly divided into 6 groups: normal control group; ConA model group, Cimicifugae rhizoma compatibility group, Cimicifugae rhizoma group, Cimicifugae rhizoma total phenolic acid group and isoferulic acid group.
Model preparation and drug administration: except the normal control group, mice were injected intravenously once at a dose of ConA 15 mg/kg. The dosages of each drug group were the same as those of Experimental Example 1.
(2) The effects of each drug group on liver pathological damage in ConA mice were examined. Three mice in each group were sacrificed under anesthesia 10 hours after ConA injection. The left lobe of the liver was taken, cut into a size of about 5 mm^3, and placed in 10% formalin solution, and dehydrated, transparently impregnated with wax, embedded, sliced, and spread, and observed after staining;

CIA arthritis mice = assay: Arthritis index of CIA arthritis mice; details: for arthritis index: MEAN ± SEM
Text: Test materials: bovine type II collagen acetic acid solution and complete Freund's adjuvant were purchased from Chondrex company; isoferulic acid was purchased from Tianjin Yifang Technology Co., Ltd.
Animals: C57BL/6 mice, purchased from Beijing Huafukang Biotechnology Co., Ltd.
Grouping: 24 C57BL/6 mice, male, 18-20 g, after 1 day of adaptive breeding, the mice were randomly divided into 4 groups: normal control group and CIA model group, 5 mice in each group; Cimicifugae rhizoma group and isoferulic acid group, 7 mice in each group.
Model preparation and drug administration: Prepared a 2 mg/ml bovine type II collagen acetic acid solution, took 2 ml of the overnighted bovine type II collagen acetic acid solution, mixed thoroughly with 2 ml of complete Freund's adjuvant and emulsified (operation on ice), and prepared the bovine type II collagen emulsion having a final concentration of 1 mg/ml. Each mouse was injected intradermally with 0.1 ml of the emulsion. 21 days after the first immunization, mice were given a second immunization for 21 days, starting from day 0 of the second immunization, the CIA model group was given 250 μL of distilled water by gavage and the Cimicifugae rhizoma group was given 250 μL of the Cimicifugae rhizoma decoction obtained in Preparation Example 1. The crude drug dose was 2 g/kg; 250 μL of an aqueous solution of isoferulic acid was administered by gavage in the isoferulic acid group at a dose of 5 mg/kg, administered once every 3 days, and bred continuously for 21 days.
Animals were scored using the joint scoring method (grades 0-4), and the assessment was based on the degree of joint redness and swelling and joint swelling and deformation. 0 point: no redness and swelling; 1 point: redness but no swelling of the joint; 2 points: mild redness and swelling of the joint; 3 points: moderate redness and swelling of the joint; 4 points: severe redness and swelling of the joint accompanied by dysfunction of the joint. Each limb was scored separately, and the sum of the scores of each limb is the arthritis index of the mouse. The highest score is 16 points. The higher the score, the more severe the joint symptoms.

[2] = test system: joint tissue cytokines IL-9, IL-18 and MIP-2; assay: Joint tissue cytokines in CIA arthritis mice (multi-factor detection); details: MEAN ± SEM
Text: Test materials and animals: Consistent with Experimental Example 3. Anti-type II collagen antibody ELISA kit was purchased from Chondrex, Cytokine & Chemokine 36-Plex Mouse ProcartaPlex™ Panel 1A cytokine and chemokine detection kit was purchased from ThermoFisher.
Model preparation and drug administration: the drug dosage of each treatment group was the same as that of Experimental Example 3. After 21 days of the second immunization, the mice were anesthetized.
(3) The effects of each drug group on cytokine secretion in serum and joint tissues of CIA mice were measured. Seven mice from each group were examined; peripheral blood was collected and separated from serum. Cytokines in serum were detected by multiple factors: IFN-γ, IL-6, IL-9, IL-12, IL-17A, IP-10, MCP-1, MCP-3. MIP-1α, MIP-1β, Eotaxin, and G-CSF; the right hind limb knees, joints and claws were taken and stored in liquid nitrogen for quick freezing, then homogenized and extracted protein. Multi-factor detection of cytokines in tissues: IL-9, IL-18 and MIP-2 secretion.

`COc1ccc(C=CC(=O)O)cc1O` [isoferulic acid, 3-hydroxy-4-methoxycinnamic acid] was tested, and the “liver pathological damage (HE staining)” value [1] was “reduced hepatocyte degeneration and necrosis”, the arthritis index (CIA arthritis mice; Day 0 after second immunization, gavage once every 3 days (Cimicifugae rhizoma 2 g/kg, isoferulic acid 5 mg/kg), max 16 points) was 0 ± 0 and the arthritis index (CIA arthritis mice; Day 3 after second immunization) was 0.43 ± 0.28. It also gave an arthritis index (CIA arthritis mice; Day 6 after second immunization) of 1.0 ± 0.61, an arthritis index (CIA arthritis mice; Day 9 after second immunization) of 3.14 ± 0.77 and an arthritis index (CIA arthritis mice; Day 12 after second immunization) of 5.14 ± 0.98. The arthritis index (CIA arthritis mice; Day 15 after second immunization, CIA group 8.43) was 4.43, the arthritis index (CIA arthritis mice; Day 15 after second immunization, CIA group 8.43, listed as Isoferulic acid) was 5.71 ± 0.83 and the “swelling of paw joints (FIG. 3)” value (CIA arthritis mice; pictures of front and hind paw joints, versus CIA arthritis mice) was “significantly reduced”. The “Joint tissue IL-9” value [2] was 3.2 ± 1.5 pg/mg, the “Joint tissue IL-18” value [2] was 111.1 ± 125 pg/mg and the “Joint tissue MIP-2” value [2] was 61.2 ± 45.8 pg/mg.
